{
  "source": "patent US20240352494A1",
  "about": "“HETEROLOGOUS PRODUCTION OF […] YEASTS” (ADAMA CHILE SA, priority 2021, published 2024)",
  "tested_on": "A. thaliana seedlings",
  "experiment": "hypocotyl length assay (inhibition of hypocotyl elongation)",
  "type": "in vivo, A. thaliana Col-0",
  "details": "tZ standard at 0.14, 0.28 and 0.56 mg/L (mean of all treatments, no significant difference between them); seedlings grown in darkness, measured after 8 days",
  "protocol": "The bioactivity of the produced cytokinins was tested in A. thaliana by hypocotyl length assay. This assay is based on the capacity of cytokinins to inhibit hypocotyl elongation in A. thaliana seedlings (Cary et al., 1995, Plant Physiol., 107 (4): 1075-1082). Seeds of A. thaliana Col-0 were surface sterilized, sown on 0.5× Murashige and Skoog (MS) medium (Murashige and Skoog, 1962, Physiol. Plant., 15(13):473-497) (0.7% agar) without sucrose, and stratified in darkness for 3 days at 4° C. Seedlings were grown in complete darkness in a growth cabinet at 21°° C. Hypocotyl lengths were determined after 8 days of growth, and at least 15 seedlings were measured for each treatment.",
  "data": [
    {"compound": "C/C(=C\\CNc1ncnc2nc[nH]c12)CO", "note": "[tZ standard, trans-zeatin]", "values": [
      {"measurement": "mean reduction in hypocotyl lengths", "result": 58, "unit": "%"}
    ]}
  ]
}
